Experimental data as given in patent US6432954B1, “Pharmaceutical compositions and methods for use” (Targacept, Inc., priority 2000, dated 2002).

Columns and labels:
Assay type in all cases: physicochemical
[1] = Water solubility of the salt
Description: (§1) The salts of the present invention which are derived from aryl substituted amines and 2,3-diacyl-tartaric acids have a number of advantages over other salts derived from aryl substituted amines and other acids, such as fumaric acid or galactaric acid. […] As such, the di-p-toluoyl-D-tartrate salt of (2S)-(4E)-N-methyl-5-[3-(5-isopropoxypyridin)yl)]-4-penten-2-amine is a free-flowing crystalline powder; and such a property is a definite advantage for pharmaceutical formulation development and pharmaceutical manufacturing. If necessary, this salt can be milled to an acceptable particle size range for pharmaceutical processing. […] The salt is compatible with a wide range of excipients that might be chosen for the manufacture of solid oral dosage forms. This is especially so for those exicipients, such polysaccharide derivatives, that are pharmaceutically defined hydrates and those with only loosely bound surface water. As an illustration, salts derived from certain aryl substituted amines, such as E-metanicotine and fumaric acid are prone to the formation of impurities within the salt. For example, impurities arise from the Michael addition reaction of the secondary amine in E-metanicotine to the olefin in fumaric acid. These impurities lower the chemical purity of the salt and adversely affect the chemical integrity of the salt upon long-term storage. […]

[2] = Water absorption (hygroscopicity) of the salt
Description: as §1

[3] = Physical and chemical stability of the salt
Description: as §1

Row | water solubility [1] | amount of water absorbed ([2]; room temperature and 90% relative humidity) [%] | stability [3] | amount of water absorbed ([2]; 40° C. and 70% relative humidity) [%] | Structure (SMILES)
1 | water soluble | 3.2 | physically and chemically stable | – | CN[C@@H](C)C/C=C/c1cncc(OC(C)C)c1 [Sample No. 2, (2S)-(4E)-N-methyl-5-[3-(5-isopropoxypyridin)yl]-4-penten-2-amine hemi-(di-p-toluoyl-D-tartrate)]
2 | – | – | – | 11.8 | CN[C@@H](C)C/C=C/c1cncc(OC(C)C)c1.CN[C@@H](C)C/C=C/c1cncc(OC(C)C)c1.O=C(O)[C@@H](O)[C@H](O)[C@H](O)[C@@H](O)C(=O)O [hemigalactarate of (2S)-(4E)-N-methyl-5-[3-(5-isopropoxypyridin)yl)]-4-penten-2-amine, reference compound]
